Here are results for seven cell lines from the supplement of paper PMC10307832.

Experiment in all cases: relative viability (nuclei count vs DMSO), 5 days (fraction); higher = more cells survive
Compound in experiment [1]: CCN1CCC(CC1)N2C=C(N=N2)CNC3=CC4=C(C(=CN=C4C(=C3)Cl)C#N)NC5=CC(=C(C=C5)F)Cl [KIN001-266] + CS(=O)(=O)N1CCN(Cc2cc3nc(-c4cccc5[nH]ncc45)nc(N4CCOCC4)c3s2)CC1 [Pictilisib] (partner 1 µM)
In short, it runs like this:
(§1)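 Relative viability is defined as nuclei in treated wells over nuclei in vehicle wells. Duplicate plates were run and medians reported. Lung cancer cell lines in 1536-well plates were dosed by pin tool one day after seeding, with one drug or with a fixed anchor-drug dose plus five library-drug doses (not always all listed) in √10 steps, and nuclei were counted after 5 days.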

Compound in experiment [2]: CCN1CCC(CC1)N2C=C(N=N2)CNC3=CC4=C(C(=CN=C4C(=C3)Cl)C#N)NC5=CC(=C(C=C5)F)Cl [KIN001-266] + CC(=O)c1c(C)c2cnc(Nc3ccc(N4CCNCC4)cn3)nc2n(C2CCCC2)c1=O [Palbociclib] (partner 0.5 µM)
In short, it runs like this: as §1

Compound in experiment [3]: CCN1CCC(CC1)N2C=C(N=N2)CNC3=CC4=C(C(=CN=C4C(=C3)Cl)C#N)NC5=CC(=C(C=C5)F)Cl [KIN001-266] + Nc1ncn([C@H]2C[C@H](O)[C@@H](CO)O2)c(=O)n1 [Decitabine] (partner 2 µM)
In short, it runs like this: as §1

Compound in experiment [4]: CCN1CCC(CC1)N2C=C(N=N2)CNC3=CC4=C(C(=CN=C4C(=C3)Cl)C#N)NC5=CC(=C(C=C5)F)Cl [KIN001-266] + N=C(N)NC(=N)NCCc1ccccc1 [Phenformin] (partner 250 µM)
Summed up:
as §1

Consider H3255, for which the relative viability in experiment [1] (first compound 0.08 µM) is 0.523; in experiment [1] (first compound 0.253 µM), 0.518; in experiment [1] (first compound 0.8 µM) it was 0.49; in experiment [1] (first compound 2.53 µM) it was 0.516; in experiment [1] (first compound 8 µM) it was 0.341; in experiment [2] (first compound 0.08 µM), 0.336. Moreover, the relative viability came to 0.3 in experiment [2] (first compound 0.253 µM); 0.307 in experiment [2] (first compound 0.8 µM); 0.311 in experiment [2] (first compound 2.53 µM); 0.282 in experiment [2] (first compound 8 µM); 0.632 in experiment [3] (first compound 0.08 µM); 0.557 in experiment [3] (first compound 0.253 µM). Moreover, the relative viability is 0.587 in experiment [3] (first compound 0.8 µM); 0.618 in experiment [3] (first compound 2.53 µM); 0.713 in experiment [3] (first compound 8 µM); 0.356 in experiment [4] (first compound 0.08 µM); 0.373 in experiment [4] (first compound 0.253 µM); 0.353 in experiment [4] (first compound 0.8 µM). Further, the relative viability in experiment [4] (first compound 2.53 µM) is 0.353; in experiment [4] (first compound 8 µM) it was 0.345.

Regarding EPLC-272H, the relative viability in experiment [1] (first compound 0.08 µM) came to 0.349; in experiment [1] (first compound 0.253 µM), 0.336; in experiment [1] (first compound 0.8 µM) it was 0.305; in experiment [1] (first compound 2.53 µM), 0.265; in experiment [1] (first compound 8 µM) it was 0.289; in experiment [2] (first compound 0.08 µM), 0.348. The relative viability in experiment [2] (first compound 0.253 µM) came out at 0.354; in experiment [2] (first compound 0.8 µM), 0.275; in experiment [2] (first compound 2.53 µM), 0.307; in experiment [2] (first compound 8 µM), 0.312; in experiment [3] (first compound 0.08 µM) it was 0.382; in experiment [3] (first compound 0.253 µM), 0.404. Moreover, the relative viability came to 0.338 in experiment [3] (first compound 0.8 µM); 0.344 in experiment [3] (first compound 2.53 µM); 0.319 in experiment [3] (first compound 8 µM); 0.334 in experiment [4] (first compound 0.08 µM); 0.317 in experiment [4] (first compound 0.253 µM); 0.274 in experiment [4] (first compound 0.8 µM). Also, the relative viability in experiment [4] (first compound 2.53 µM) worked out at 0.234; in experiment [4] (first compound 8 µM), 0.239.

Take PC-3 [JPC-3]: the relative viability in experiment [1] (first compound 0.08 µM) came out at 0.797; in experiment [1] (first compound 0.253 µM) it was 0.8; in experiment [1] (first compound 0.8 µM) it was 0.575; in experiment [1] (first compound 2.53 µM) it was 0.693; in experiment [1] (first compound 8 µM), 0.527; in experiment [2] (first compound 0.08 µM) it was 0.539. The relative viability in experiment [2] (first compound 0.253 µM) was determined as 0.544; in experiment [2] (first compound 0.8 µM) it was 0.542; in experiment [2] (first compound 2.53 µM) it was 0.537; in experiment [2] (first compound 8 µM) it was 0.549; in experiment [3] (first compound 0.08 µM), 0.786; in experiment [3] (first compound 0.253 µM), 0.87. The relative viability in experiment [3] (first compound 0.8 µM) was 0.823; in experiment [3] (first compound 2.53 µM), 0.824; in experiment [3] (first compound 8 µM), 0.737; in experiment [4] (first compound 0.08 µM), 0.466; in experiment [4] (first compound 0.253 µM), 0.496; in experiment [4] (first compound 0.8 µM), 0.48. Besides, the relative viability in experiment [4] (first compound 2.53 µM) amounted to 0.475; in experiment [4] (first compound 8 µM), 0.477.

As to NCI-H1793, the relative viability was 0.287 in experiment [1] (first compound 0.08 µM); 0.332 in experiment [1] (first compound 0.253 µM); 0.305 in experiment [1] (first compound 0.8 µM); 0.253 in experiment [1] (first compound 2.53 µM); 0.322 in experiment [1] (first compound 8 µM); 0.316 in experiment [2] (first compound 0.08 µM). In addition, the relative viability in experiment [2] (first compound 0.253 µM) came to 0.358; in experiment [2] (first compound 2.53 µM), 0.354; in experiment [2] (first compound 8 µM) it was 0.307; in experiment [3] (first compound 0.08 µM), 0.574; in experiment [3] (first compound 0.253 µM), 0.463; in experiment [3] (first compound 2.53 µM), 0.476. Moreover, the relative viability in experiment [3] (first compound 8 µM) is 0.364; in experiment [4] (first compound 0.08 µM) it was 0.418; in experiment [4] (first compound 0.253 µM), 0.324; in experiment [4] (first compound 0.8 µM) it was 0.25; in experiment [4] (first compound 2.53 µM) it was 0.352; in experiment [4] (first compound 8 µM) it was 0.251.

EKVX: the relative viability in experiment [1] (first compound 0.08 µM) is 0.386; in experiment [1] (first compound 0.253 µM) it was 0.417; in experiment [1] (first compound 0.8 µM), 0.425; in experiment [1] (first compound 2.53 µM) it was 0.405; in experiment [1] (first compound 8 µM), 0.4; in experiment [2] (first compound 0.08 µM) it was 0.402. Besides, the relative viability in experiment [2] (first compound 0.253 µM) stood at 0.406; in experiment [2] (first compound 0.8 µM), 0.403; in experiment [2] (first compound 2.53 µM), 0.391; in experiment [2] (first compound 8 µM), 0.367; in experiment [3] (first compound 0.08 µM), 0.364; in experiment [3] (first compound 0.253 µM) it was 0.422. Also, the relative viability is 0.368 in experiment [3] (first compound 0.8 µM); 0.364 in experiment [3] (first compound 2.53 µM); 0.358 in experiment [3] (first compound 8 µM); 0.234 in experiment [4] (first compound 0.08 µM); 0.237 in experiment [4] (first compound 0.253 µM); 0.2 in experiment [4] (first compound 0.8 µM). In addition, the results for the relative viability in experiment [4] (first compound 2.53 µM) and in experiment [4] (first compound 8 µM) were 0.243 and 0.225, respectively.

ChaGo-K-1: the relative viability in experiment [1] (first compound 0.08 µM) was found to be 1.04; in experiment [1] (first compound 0.253 µM) it was 0.852; in experiment [1] (first compound 2.53 µM), 0.844; in experiment [1] (first compound 8 µM), 0.703; in experiment [2] (first compound 0.08 µM) it was 0.949; in experiment [2] (first compound 0.253 µM), 1.01. Further, the relative viability was 0.851 in experiment [2] (first compound 0.8 µM); 0.84 in experiment [2] (first compound 2.53 µM); 0.428 in experiment [2] (first compound 8 µM); 0.502 in experiment [3] (first compound 0.08 µM); 0.517 in experiment [3] (first compound 0.253 µM); 0.508 in experiment [3] (first compound 0.8 µM). Also, the relative viability came to 0.506 in experiment [3] (first compound 2.53 µM); 0.38 in experiment [3] (first compound 8 µM); 0.508 in experiment [4] (first compound 0.08 µM); 0.505 in experiment [4] (first compound 0.253 µM); 0.473 in experiment [4] (first compound 0.8 µM); 0.48 in experiment [4] (first compound 2.53 µM). In addition, the relative viability in experiment [4] (first compound 8 µM) came to 0.454.

Take NCI-H23: the relative viability is 0.494 in experiment [1] (first compound 0.08 µM); 0.557 in experiment [1] (first compound 0.253 µM); 0.458 in experiment [1] (first compound 0.8 µM); 0.351 in experiment [1] (first compound 2.53 µM); 0.469 in experiment [1] (first compound 8 µM); 0.46 in experiment [2] (first compound 0.08 µM). Further, the relative viability in experiment [2] (first compound 0.253 µM) stood at 0.423; in experiment [2] (first compound 0.8 µM), 0.522; in experiment [2] (first compound 2.53 µM) it was 0.532; in experiment [2] (first compound 8 µM), 0.402; in experiment [3] (first compound 0.08 µM), 0.332; in experiment [3] (first compound 0.253 µM), 0.297. The relative viability in experiment [3] (first compound 0.8 µM) stood at 0.311; in experiment [3] (first compound 2.53 µM), 0.311; in experiment [3] (first compound 8 µM), 0.256; in experiment [4] (first compound 0.08 µM), 0.826; in experiment [4] (first compound 0.253 µM), 0.715; in experiment [4] (first compound 0.8 µM), 0.772. The relative viability was determined as 0.722 in experiment [4] (first compound 2.53 µM) and 0.73 in experiment [4] (first compound 8 µM).
